What was measured:
[1] = system: Lactobacillus crispatus 13331; assay: Growth experiments with probiotic supernatant and biogenic amines (OD600, 44 h); format: cell-based; settings: highest physiological concentration (cadaverine 4990 μM, putrescine 3179 μM); putrescine effect from 0.5 h to end of experiment
Experimental: The growth experiment was performed as described above but with some modifications. The Lactobacillus crispatus strain was cultured in SVF media (control), and in the SVF media containing one of the biogenic amines, and in the SVF media containing one of the biogenic amines and probiotic supernatant. The effect of all five biogenic amines was investigated independently on the pure culture of Lactobacillus crispatus 13331. Each test condition was investigated in triplicates in the honey-comb plate. […] The growth study was performed in SVF pH 4.5 using Bioscreen© C system measuring the optical density at 600 nm every 30 min for 44 h at 37° C. […] Growth experiments were performed in three independent biological replicates.

L. crispatus strains = settings: Borgogna et al., 2021; cited from earlier work

| SMILES | growth in the presence of biogenic amine alone vs strain alone (control) [1] | effect on growth of L. crispatus strains (L. crispatus strains) |
| --- | --- | --- |
| NCCCCCN [cadaverine] | no statistically significant difference in growth |  |
| NCCCCN [putrescine] | significant reduction in the growth | negatively affect the growth |
